From patent publication US5656256A (The University of North Carolina at Chapel Hill, priority 1994, dated 1997)

How the values were obtained:
[1] = target: T1, airway epithelial Na+ channels (Homo sapiens, UniProt P37088+P51168+P51170); assay: Persistence of Na+ absorption blockade after washout of drug, Ussing chamber; assay type: cell-based; details: 10^-5 M for 5 minutes to the luminal surface, then KBR perfusion; time for Isc to return to basal
T1 construct: Cells from freshly excised specimens are protease isolated; endogenous in cells
T1 sequence (P37088 1-669): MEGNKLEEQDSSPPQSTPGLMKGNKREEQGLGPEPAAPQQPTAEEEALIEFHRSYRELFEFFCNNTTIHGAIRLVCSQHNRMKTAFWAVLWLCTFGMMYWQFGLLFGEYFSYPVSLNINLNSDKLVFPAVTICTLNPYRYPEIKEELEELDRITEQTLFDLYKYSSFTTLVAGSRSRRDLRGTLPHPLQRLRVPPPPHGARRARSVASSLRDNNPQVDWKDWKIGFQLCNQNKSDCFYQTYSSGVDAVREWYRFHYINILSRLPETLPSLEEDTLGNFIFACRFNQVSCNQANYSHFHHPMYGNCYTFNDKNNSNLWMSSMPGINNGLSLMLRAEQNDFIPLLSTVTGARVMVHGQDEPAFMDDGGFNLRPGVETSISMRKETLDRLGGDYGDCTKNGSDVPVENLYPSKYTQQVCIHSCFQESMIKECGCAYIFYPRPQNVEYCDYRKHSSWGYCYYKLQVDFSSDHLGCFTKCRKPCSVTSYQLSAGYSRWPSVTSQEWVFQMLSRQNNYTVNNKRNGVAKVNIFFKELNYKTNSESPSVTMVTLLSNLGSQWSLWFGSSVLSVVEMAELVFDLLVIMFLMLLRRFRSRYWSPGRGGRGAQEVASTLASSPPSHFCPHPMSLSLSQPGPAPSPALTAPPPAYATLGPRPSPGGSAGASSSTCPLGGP
T1 sequence (P51168 1-640): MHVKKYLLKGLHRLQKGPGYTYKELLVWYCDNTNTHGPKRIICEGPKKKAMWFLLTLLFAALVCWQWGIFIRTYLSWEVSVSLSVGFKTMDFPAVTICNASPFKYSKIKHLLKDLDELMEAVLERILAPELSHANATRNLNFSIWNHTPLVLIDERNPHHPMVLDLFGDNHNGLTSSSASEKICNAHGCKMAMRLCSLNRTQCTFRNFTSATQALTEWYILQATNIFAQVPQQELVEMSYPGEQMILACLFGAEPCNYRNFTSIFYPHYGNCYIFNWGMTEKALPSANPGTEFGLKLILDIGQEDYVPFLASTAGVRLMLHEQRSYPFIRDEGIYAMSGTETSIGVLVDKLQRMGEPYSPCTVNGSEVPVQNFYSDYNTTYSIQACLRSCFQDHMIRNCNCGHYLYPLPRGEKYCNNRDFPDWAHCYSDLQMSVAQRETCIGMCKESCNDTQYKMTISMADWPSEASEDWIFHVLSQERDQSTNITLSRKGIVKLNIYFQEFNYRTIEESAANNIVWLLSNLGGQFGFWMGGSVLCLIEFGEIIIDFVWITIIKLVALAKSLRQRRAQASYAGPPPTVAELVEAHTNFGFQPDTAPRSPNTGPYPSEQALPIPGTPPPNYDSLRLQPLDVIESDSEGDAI
T1 sequence (P51170 1-649): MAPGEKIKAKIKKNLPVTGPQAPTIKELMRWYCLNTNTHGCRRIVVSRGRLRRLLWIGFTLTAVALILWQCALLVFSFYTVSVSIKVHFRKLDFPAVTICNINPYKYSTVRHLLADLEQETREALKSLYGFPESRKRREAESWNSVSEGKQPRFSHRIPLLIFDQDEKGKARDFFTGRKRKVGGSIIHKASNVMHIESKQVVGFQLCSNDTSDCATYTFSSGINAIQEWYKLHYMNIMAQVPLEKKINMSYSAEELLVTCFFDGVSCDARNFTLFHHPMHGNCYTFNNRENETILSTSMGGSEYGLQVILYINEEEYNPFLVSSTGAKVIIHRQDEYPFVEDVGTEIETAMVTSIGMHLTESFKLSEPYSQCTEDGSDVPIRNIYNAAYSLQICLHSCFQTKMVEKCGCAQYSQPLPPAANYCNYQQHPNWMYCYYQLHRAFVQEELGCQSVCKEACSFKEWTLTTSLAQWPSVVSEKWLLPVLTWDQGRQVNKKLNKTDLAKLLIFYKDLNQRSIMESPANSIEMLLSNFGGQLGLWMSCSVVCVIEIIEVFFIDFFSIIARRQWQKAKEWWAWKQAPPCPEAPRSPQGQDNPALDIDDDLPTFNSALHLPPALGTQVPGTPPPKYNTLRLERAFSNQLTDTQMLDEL
Text: In vivo, drug is delivered to the lungs as a single bolus. […] This Example illustrates the contribution of binding of drug to the target site (2) to the duration of drug action.
A protocol was designed to measure the duration of drug action after removal of drug from the airway surface liquid compartment. For this protocol, human airway epithelial preparations as described in Example 1 are mounted in modified Ussing chambers and interfaced to voltage clamps as described above in Example 2. Basal measurements of Isc in KBR are made and the steady state response to a 5 minute administration of a single maximal effective concentration (10^-5 M) of drug delivered to the luminal surface is measured. Following this step, administration of the drug is stopped, the lumen is perfused with standard KBR solutions, and the time required for Isc to return to baseline or basal levels is measured.

[2] = target: T1, airway epithelial Na+ channels; assay: Short-circuit current (Isc) measurement of sodium transport in cultured human nasal epithelium, Ussing chamber; assay type: cell-based; details: for concentration achieving the same level of complete sodium channel blocking, less than amiloride: apical surface of human nasal epithelium, relative to amiloride
Description: The cell culture procedures used in this example are performed as described in Willumsen, N. J., et al., Am. J. Physiol. 256:C1033-C1044 (Cell. Physiol. 25) (1989) and Yankaskas, J. R., et al., Am. Rev. Respir. Dis. 132:1281-1287 (1985). Cells from freshly excised specimens are protease isolated with protease XIV (Sigma, St, Louis, Mo.), concentrated,and plated on collagen membranes in the bottom of plastic-tissue culture cups. The cells are fed for 5 days with serum-free F-12 medium containing the following additives (F-12/7X): insulin, epidermal growth factor, cholera toxin, transferrin, hydrocortisone, triiodothyronine, and endothelial cell growth substance. Subsequently, they are fed with F-12/7X media supplemented (1:1) with 3T3 fibroblast-conditioned media containing 1% fetal bovine serum. After the fifth day in culture, the transepithelial potential difference (PD) developed by the culture is measured daily to detect the occurrence of confluency. Cell preparations are routinely studied within 1 day of the development of the maximal PD.
J. Physiol. (Cell Physiol. 25) 256:C1033-C1053 (1989).
The tissue preparation described in Example 1 is mounted in a modified (superfusion, not recirculating), miniature Ussing chamber interfaced to a voltage clamp that measures transepithelial PD and the PD response to constant current (I) pulses. The chamber contains 1 ml of bathing solution for each (apical; basolateral) surface of the preparation. The solution used as the vehicle for drug delivery is a Krebs bicarbonate Ringer solution (KBR) which approximates the ionic composition of plasma. This solution is warmed (37°) and gassed (95% oxygen, 5% CO2) to maintain pH 7.4. The cultured cells are superfused on both surfaces with KBR.
The measurement of sodium transport rates is performed by recording the spontaneous transepithelial PD (Vt) and responses of the PD to constant current pulses. From the relationship between Vt and induced Vt deflections, the transepithelial resistance (Rt) is calculated. The short-circuit current (Isc), or measure of sodium transport rate, is determined as Isc =Vt /Rt.
Each cultured human airway epithelial preparation is exposed to different concentrations (10^-8 M-10^-3 M) of a sodium-channel blocking drug on either the basolateral or apical surface for the dose response studies. To construct concentration-effect relationships of the response to the drugs, it was assumed that the same maximum response to a drug could be induced from each tissue culture preparation from the same individual.

Compound	duration of activity after washout compared to amiloride [1]	concentration achieving the same level of complete sodium channel blocking, less than amiloride [2]	potency compared to amiloride (more potent by) [2]	potency as blocker of apical Na+ channels (in words) ([2]; steady-state inhibition of Na+ transport, human nasal epithelia)
NC(=Nc1ccccc1)NC(=O)c1nc(Cl)c(N)nc1N [phenamil, 3,5-diamino-6-chloro-N-(phenylaminoaminomethylene)pyrazinecarboxamide]	almost twice as long as amiloride	approximately one	1-1.5 log-concentration units	–
N=C(N)NC(=O)c1nc(Cl)c(N)nc1N [amiloride]	–	–	–	significantly less potent than benzamil or phenamil
NC(=NCc1ccccc1)NC(=O)c1nc(Cl)c(N)nc1N [benzamil, 3,5-diamino-6-chloro-N-(benzylaminoaminomethylene)pyrazinecarboxamide]	almost twice as long as amiloride	approximately one	1-1.5 log-concentration units	–
